In the supplement of paper PMC10307832 one finds relative viability data, which are given here for 5 cell lines.

What all share (assay): relative viability (nuclei count vs DMSO), 5 days (fraction); higher = more cells survive
Compound in the assay “Ruxolitinib + Bortezomib”: N#CC[C@H](C1CCCC1)n1cc(-c2ncnc3[nH]ccc23)cn1 [Ruxolitinib] + CC(C)C[C@H](NC(=O)[C@H](Cc1ccccc1)NC(=O)c1cnccn1)B(O)O [Bortezomib] (partner 0.002 µM)
The gist of the method: (§1)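 Lung cancer cell lines in 1536-well plates got either a single drug or a fixed anchor-drug dose together with five library-drug doses (not always all listed) in √10 steps, by pin tool, on the day after seeding. Nuclei were counted after 5 days, and relative viability is the treated-to-vehicle ratio of nuclei counts. Values are medians of duplicate plates.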

Compound in the assay “Vismodegib + Bortezomib”: CS(=O)(=O)c1ccc(C(=O)Nc2ccc(Cl)c(-c3ccccn3)c2)c(Cl)c1 [Vismodegib] + CC(C)C[C@H](NC(=O)[C@H](Cc1ccccc1)NC(=O)c1cnccn1)B(O)O [Bortezomib] (partner 0.002 µM)
The gist of the method:
as §1

Compound in the assay “VE-821 + OSI-027”: CS(=O)(=O)c1ccc(-c2cnc(N)c(C(=O)Nc3ccccc3)n2)cc1 [VE-821] + COc1cccc2cc(-c3nc([C@H]4CC[C@H](C(=O)O)CC4)n4ncnc(N)c34)[nH]c12 [OSI-027] (partner 0.5 µM)
The method in brief:
as §1

Compound in the assay “VE-821 + Phenformin”: CS(=O)(=O)c1ccc(-c2cnc(N)c(C(=O)Nc3ccccc3)n2)cc1 [VE-821] + N=C(N)NC(=N)NCCc1ccccc1 [Phenformin] (partner 250 µM)
The gist of the method:
as §1

As for PC-3 [JPC-3], the relative viability with Ruxolitinib + Bortezomib (first compound 0.08 µM) worked out at 0.63; with Ruxolitinib + Bortezomib (first compound 0.253 µM), 0.819; with Ruxolitinib + Bortezomib (first compound 0.8 µM), 0.738; with Ruxolitinib + Bortezomib (first compound 2.53 µM), 0.796; with Ruxolitinib + Bortezomib (first compound 8 µM), 0.7; with Vismodegib + Bortezomib (first compound 0.08 µM), 0.827. The relative viability in the assay with Vismodegib + Bortezomib (first compound 0.253 µM) stood at 0.929; with Vismodegib + Bortezomib (first compound 0.8 µM) it was 0.786; with Vismodegib + Bortezomib (first compound 2.53 µM), 0.766; with Vismodegib + Bortezomib (first compound 8 µM), 0.93; with VE-821 + OSI-027 (first compound 0.08 µM), 0.89; in the assay with VE-821 + OSI-027 (first compound 0.253 µM), 0.724. In addition, the relative viability stood at 0.887 with VE-821 + OSI-027 (first compound 0.8 µM); 0.829 with VE-821 + OSI-027 (first compound 2.53 µM); 0.749 with VE-821 + OSI-027 (first compound 8 µM); 0.455 with VE-821 + Phenformin (first compound 0.08 µM); 0.504 with VE-821 + Phenformin (first compound 0.253 µM); 0.448 in the assay with VE-821 + Phenformin (first compound 0.8 µM). For the same cell line, the relative viability worked out at 0.469 with VE-821 + Phenformin (first compound 2.53 µM) and 0.451 with VE-821 + Phenformin (first compound 8 µM).

As to PC-14, the relative viability in the assay with Ruxolitinib + Bortezomib (first compound 0.253 µM) turned out to be 0.969; in the assay with Ruxolitinib + Bortezomib (first compound 0.8 µM), 0.875; with Ruxolitinib + Bortezomib (first compound 2.53 µM), 0.789; in the assay with Ruxolitinib + Bortezomib (first compound 8 µM) it was 0.603; in the assay with Vismodegib + Bortezomib (first compound 0.08 µM) it was 0.802; with Vismodegib + Bortezomib (first compound 0.253 µM), 0.779. Also, the relative viability amounted to 0.994 in the assay with Vismodegib + Bortezomib (first compound 0.8 µM); 0.761 with Vismodegib + Bortezomib (first compound 2.53 µM); 0.755 in the assay with Vismodegib + Bortezomib (first compound 8 µM); 1.01 with VE-821 + OSI-027 (first compound 0.08 µM); 0.762 with VE-821 + OSI-027 (first compound 0.253 µM); 0.913 with VE-821 + OSI-027 (first compound 0.8 µM). For the same cell line, the relative viability in the assay with VE-821 + OSI-027 (first compound 2.53 µM) turned out to be 0.824; with VE-821 + OSI-027 (first compound 8 µM), 0.336; with VE-821 + Phenformin (first compound 0.08 µM) it was 0.648; with VE-821 + Phenformin (first compound 0.253 µM), 0.528; in the assay with VE-821 + Phenformin (first compound 0.8 µM), 0.675; with VE-821 + Phenformin (first compound 2.53 µM), 0.574. Moreover, the relative viability with VE-821 + Phenformin (first compound 8 µM) amounted to 0.449.

Regarding RERF-LC-KJ, the relative viability in the assay with Ruxolitinib + Bortezomib (first compound 0.08 µM) was 1.09; with Ruxolitinib + Bortezomib (first compound 0.253 µM), 1.11; with Ruxolitinib + Bortezomib (first compound 0.8 µM), 1.2; with Ruxolitinib + Bortezomib (first compound 2.53 µM), 1; with Ruxolitinib + Bortezomib (first compound 8 µM), 0.986; with Vismodegib + Bortezomib (first compound 0.08 µM) it was 1.06. Moreover, the relative viability with Vismodegib + Bortezomib (first compound 0.253 µM) was 1.07; with Vismodegib + Bortezomib (first compound 0.8 µM), 1.18; in the assay with Vismodegib + Bortezomib (first compound 2.53 µM), 1.15; with Vismodegib + Bortezomib (first compound 8 µM), 1.02; with VE-821 + OSI-027 (first compound 0.08 µM), 0.548; with VE-821 + OSI-027 (first compound 0.253 µM), 0.523. For the same cell line, the relative viability with VE-821 + OSI-027 (first compound 0.8 µM) came out at 0.535; with VE-821 + OSI-027 (first compound 2.53 µM), 0.614; with VE-821 + OSI-027 (first compound 8 µM) it was 0.49; with VE-821 + Phenformin (first compound 0.08 µM), 0.397; with VE-821 + Phenformin (first compound 0.253 µM), 0.361; with VE-821 + Phenformin (first compound 0.8 µM), 0.377. For the same cell line, the values for the relative viability with VE-821 + Phenformin (first compound 2.53 µM) and with VE-821 + Phenformin (first compound 8 µM) were 0.407 and 0.41, respectively.

SK-LU-1: the relative viability with Ruxolitinib + Bortezomib (first compound 0.08 µM) amounted to 0.465; with Ruxolitinib + Bortezomib (first compound 0.253 µM) it was 1.07; with Ruxolitinib + Bortezomib (first compound 0.8 µM), 1.3; in the assay with Ruxolitinib + Bortezomib (first compound 2.53 µM) it was 1.03; with Ruxolitinib + Bortezomib (first compound 8 µM), 0.936; with Vismodegib + Bortezomib (first compound 0.08 µM), 1.17. Further, the relative viability was 0.979 with Vismodegib + Bortezomib (first compound 0.8 µM); 1.1 with Vismodegib + Bortezomib (first compound 2.53 µM); 1.16 with Vismodegib + Bortezomib (first compound 8 µM); 0.316 in the assay with VE-821 + OSI-027 (first compound 0.08 µM); 0.316 with VE-821 + OSI-027 (first compound 0.253 µM); 0.312 in the assay with VE-821 + OSI-027 (first compound 0.8 µM). Besides, the relative viability was 0.268 in the assay with VE-821 + OSI-027 (first compound 2.53 µM); 0.193 in the assay with VE-821 + OSI-027 (first compound 8 µM); 0.675 with VE-821 + Phenformin (first compound 0.08 µM); 0.528 with VE-821 + Phenformin (first compound 0.253 µM); 0.497 with VE-821 + Phenformin (first compound 0.8 µM); 0.383 with VE-821 + Phenformin (first compound 2.53 µM). Further, the relative viability with VE-821 + Phenformin (first compound 8 µM) is 0.216.

With SW 1573, the relative viability was 0.981 with Ruxolitinib + Bortezomib (first compound 0.08 µM); 1.04 in the assay with Ruxolitinib + Bortezomib (first compound 0.253 µM); 1.01 in the assay with Ruxolitinib + Bortezomib (first compound 0.8 µM); 0.939 with Ruxolitinib + Bortezomib (first compound 2.53 µM); 0.896 with Ruxolitinib + Bortezomib (first compound 8 µM); 0.958 with Vismodegib + Bortezomib (first compound 0.08 µM). Besides, the relative viability is 0.995 with Vismodegib + Bortezomib (first compound 0.253 µM); 1.16 in the assay with Vismodegib + Bortezomib (first compound 0.8 µM); 0.946 in the assay with Vismodegib + Bortezomib (first compound 8 µM); 0.549 with VE-821 + OSI-027 (first compound 0.08 µM); 0.853 in the assay with VE-821 + OSI-027 (first compound 0.253 µM); 0.649 with VE-821 + OSI-027 (first compound 0.8 µM). Moreover, the relative viability stood at 0.823 in the assay with VE-821 + OSI-027 (first compound 2.53 µM); 0.453 with VE-821 + OSI-027 (first compound 8 µM); 0.405 with VE-821 + Phenformin (first compound 0.08 µM); 0.293 with VE-821 + Phenformin (first compound 0.253 µM); 0.358 in the assay with VE-821 + Phenformin (first compound 0.8 µM); 0.456 with VE-821 + Phenformin (first compound 2.53 µM). In addition, in the assay with VE-821 + Phenformin (first compound 8 µM), the relative viability was found to be 0.162.
